Results taken from PMC5347165, “Killing of Staphylococcus aureus and Salmonella enteritidis and neutralization of lipopolysaccharide by 17-residue bovine lactoferricins: improved activity of Trp/Ala-containing molecules” (Scientific Reports, 2017).
Several values for one entry are separate records, joined by “and”; a condition that tells them apart may be missing. Equal values may be shown once. Read-outs that look alike come from different tables or passages of the source.

Key:
[1] = tested on: S. enteritidis CVCC337; assay: Outer membrane permeabilization, NPN uptake; type: cell-based, Salmonella enteritidis; settings: 1×, 2× or 4 × MIC; HEPES buffer pH 7.2
Method: The effects of Lfcin4 and Lfcin5 on the outer membrane of S. aureus ATCC25923 and S. enteritidis CVCC3377 were determined by measuring the uptake of NPN[44][45]. Mid-log phase cells were washed with sterile normal saline three times and suspended in 5 mM HEPES buffer (pH 7.2, containing 5 mM glucose) to an OD at 600 nm of 0.5. […] The relative fluorescence intensity was measured using an Infinite M200 PRO plate reader. The excitation and emission wavelengths were set at 328 and 438 nm, respectively. Treatment with PBS severed as a negative control, and treatment with ampicillin or colistin was used as a positive control.

[2] = tested on: E. coli CICC21530 (serotype O157:H7); type: cell-based, Escherichia coli; settings: microtiter broth dilution, 10^5 CFU/ml, 16‒18 h at 37 °C; representative of three independent experiments
Method: (§1) The MIC values of LfcinB17-33 derivatives against bacteria were determined by the microtiter broth dilution method. Briefly, 10 μl of serially diluted aliquots of peptides were added to each well of 96-well microtiter plates, followed by the addition of 90 μl exponential phase bacteria (10^5 CFU/ml) and incubated for 16‒18 h at 37 °C.

[3] = tested on: E. coli CVCC1515; type: cell-based, Escherichia coli; settings: microtiter broth dilution, 10^5 CFU/ml, 16‒18 h at 37 °C; representative of three independent experiments
Method: as §1

[4] = tested on: genomic DNA from E. coli O157; assay: Gel retardation (EMSA) of genomic DNA; type: binding, Escherichia coli; settings: 0.7% agarose gel, 10 min 37 °C; ratios tested 0, 0.5, 1, 2.5, 5, 10 (w/w)
Method: (§2) Genomic DNA was extracted from S. aureus ATCC25923, E. coli O157 and S. enteritidis CVCC3377 using a TIANamp Bacteria DNA Kit (TIANGEN Biotech Co., Ltd., Beijing). The gel retardation experiment was performed by mixing the bacterial DNA with different concentrations of Lfcin4 or Lfcin5 in 20 μl binding buffer (10 mM Tris-HCl, pH 8.0, 5% glycerol, 1 mM dithiothreitol, 1 mM EDTA, 20 mM KCl, and 50 μg/ml bovine serum albumin)[41]. The ratios of peptide to DNA were 0, 0.5, 1, 2.5, 5.0, and 10.0 (w/w). The mixtures were incubated for 10 min at 37 °C and then subjected to electrophoresis on a 0.7% agarose gel.

[5] = tested on: S. enteritidis CVCC3377; type: cell-based, Salmonella enteritidis; settings: microtiter broth dilution, 10^5 CFU/ml, 16‒18 h at 37 °C; representative of three independent experiments
Method: as §1

[6] = tested on: P. aeruginosa CICC21630; type: cell-based, Pseudomonas aeruginosa; settings: microtiter broth dilution, 10^5 CFU/ml, 16‒18 h at 37 °C; representative of three independent experiments
Method: as §1

[7] = Calcein leakage from model membranes; settings: at 5 min, POPC/POPG (1:3) LUVs, 0.1% Triton X-100 = total
Method: Large unilamellar vesicles (LUVs) composed of POPC/POPG (1:3) were used as a model anionic membrane. […] were dissolved in chloroform, dried under nitrogen gas and vacuum-dried for 2 h. The lipid film was rehydrated in 20 mM HEPES (150 mM NaCl, 1 mM EDTA, pH 7.4). To make calcein-encapsulated unilamellar liposomes, the lipid film was suspended in 5 mM sodium HEPES (containing 100 mM calcein, pH 7.5). The liposome suspensions were freeze-thawed in liquid nitrogen five times and extruded ten times through two stacked polycarbonate filters (100 nm pore size) in an Avanti Mini-Extruder. Untrapped calcein was removed using a Sephadex G-50 column (Amersham Pharmacia Biotech, Little Chalfont, UK). Peptides were then added to the LUVs. After a 10-min incubation at room temperature, the release of calcein form vesicles was monitored for 10 min on a Tecan Infinite M200 PRO plate reader (TECAN, Austria) with an excitation wavelength of 485 nm and an emission wavelength of 535 nm. The total calcein fluorescence (FT) was determined by the addition of 0.1% Triton X-100. Dye leakage was calculated according to the following equation: leakage rate (%) = ((F − F0)/(FT − F0)), where F0 indicates the fluorescence of each sample at T = 0.

[8] = tested on: S. aureus ATCC25923; assay: Inner membrane permeabilization, PI staining by flow cytometry; type: cell-based, Staphylococcus aureus; settings: 1 × MIC, 37 °C, untreated 0.04%
Method: (§3) The permeabilization of the inner membrane was performed according to a previous report by Li et al. with slight modifications. […] Bacterial cells were then washed twice with PBS, fixed with 50 μg/ml PI and analyzed using a BD FACS Calibur Flow Cytometer (Franklin Lakes, New Jersey, USA). Data were analyzed using CellQuest Pro software (BD, USA).

[9] = tested on: S. enteritidis CVCC3377; assay: as above; type: cell-based, Salmonella enteritidis; settings: 1 × MIC, 37 °C, untreated 0.76%
Method: as §3

[10] = tested on: S. aureus ATCC25923; type: cell-based, Staphylococcus aureus; settings: microtiter broth dilution, 10^5 CFU/ml, 16‒18 h at 37 °C; representative of three independent experiments
Method: as §1

[11] = tested on: S. aureus ATCC25923; type: in vivo; settings: for reduction of bacterial burden in thigh: 10 h after treatment
Method: The thigh infection protocol was performed as previously described. Female BALB/c mice (6 weeks old, 22 ± 2 g) were rendered neutropenic (neutrophils, 100/mm^3) by intraperitoneal injection with 150 and 100 mg cyclophosphamide per kg of body weight for 4 d and 1 d before infection, respectively. Mice were inoculated with 100 μl of S. aureus ATCC25923 cells (1.0 × 10^7 CFU/ml) and given a single dose (0.2 ml) of Lfcin4 or Lfcin5 (10 or 15 mg/kg of body weight) or vancomycin (10 mg/kg of body weight) by tail vein injection at 2 h post-infection. Mice were humanely euthanized by cervical dislocation at 5 and 10 h after treatment. Thighs were removed and homogenized in sterile PBS for a CFU assay for S. aureus ATCC25923.

[12] = tested on: genomic DNA from S. aureus ATCC25923; assay: Gel retardation (EMSA) of genomic DNA; type: binding, Staphylococcus aureus; settings: 0.7% agarose gel, 10 min 37 °C; ratios tested 0, 0.5, 1, 2.5, 5, 10 (w/w)
Method: as §2

For “FKAWRWAWRMKKLAAPS [Lfcin4, 17-residue LfcinB17-31 derivative, Trp/Ala-containing]”, the “time to permeabilization of the outer membrane (NPN fluorescence)” value [1] was no more than 1 min, the MIC [2] was 15 μM and 32 μg/ml and the MIC [3] was 15 μM and 32 μg/ml. The “peptide:DNA mass ratio at which migration of genomic DNA is impaired” value [4] was “over 1.0 mass ratio (peptide:DNA)”, the MIC [5] was 1.8 μM and 4 μg/ml and the MIC [6] was >58 μM and >128 μg/ml. The “dye (calcein) leakage from vesicles” value ([7]; 1× MIC) was 45.5%, the “dye (calcein) leakage from vesicles” value ([7]; 2× MIC) was 90.6% and the “dye (calcein) leakage from vesicles” value ([7]; 4× MIC) was 98.4%. For the same sequence, the PI-positive cells ([8]; 30 min) was 44.20%, the PI-positive cells ([8]; 120 min) was 50.10% and the PI-positive cells ([9]; 30 min) was 2.94%. The PI-positive cells ([9]; 120 min) was 18.90%, the MIC [10] was 3.66 μM and 8 μg/ml and the “reduction of bacterial burden in thigh” value ([11]; 10 mg/kg single i.v. dose (Fig. 6A)) was 0.03 log10 CFU/g. For the same sequence, the “reduction of bacterial burden in thigh” value ([11]; 15 mg/kg single i.v. dose (Fig. 6A)) was 0.10 log10 CFU/g, the “S. aureus cells killed” value ([11]; 10 h post-treatment, 15 mg/kg single i.v. dose) was 20.5% and the “greater reduction of viable bacteria in infected thighs compared to control mice” value ([11]; increasing doses from 10 to 15 mg/kg (discussion)) was 0.85 log10 CFU/g of tissue. The “peptide:DNA mass ratio at which migration of genomic DNA is impaired” value [12] was “over 1.0 mass ratio (peptide:DNA)”.
